Two compounds from US20050214413A1, “Methods and compositions for modified release of nutritional supplements” (Mannatech, Inc., priority 2003, published 2005) can be followed below.

Holding throughout (assay type): biochemical
A short description of assay [1]: ORAC(fl) assay (fluorescein, method of Ou et al.). The settings on record: mixed at different ratios with quercetin, standard acetone:water. The procedure:
Prior Art Method of Measuring Antioxidant Activity for Comparison. For the ORAC(fl) assay, the method of Ou et al. (Ou , B., Hampsch-Woodill, M. and Prior, R. L., J. Agric. Food Chem. 2001, 49, 4619-4626) was followed. Differences from the Ou procedure as published included the speed of the orbital shaker (Ou, 400 rpm; herein, 280 rpm), and the centrifuge speed (Ou, 14,000 rpm, 15 min; herein, 3200 rpm, 15 min and the length of the assay (Ou, 30 min; herein, 100 min). Fluorescein, sodium salt, was obtained from Aldrich (Milwaukee, Wis.). For the Ou method, a standard amount of fluorescein is added to an antioxidant product being tested, and the beginning level of fluorescence is measured. A free radical initiator is added, and the time and degree of disappearance of fluorescence are measured. Trolox®, 6-Hydroxy-2,5,7,8-tetramethylchroman-2-carboxylic Acid, is a cell-permeable, water-soluble derivative of vitamin E with potent antioxidant properties. Trolox® prevents peroxynitrite-mediated oxidative stress and apoptosis in rat thymocytes and is a synthetic antioxidant that is consistent from lot-to-lot and is used as the standard and run for comparison with each sample. A blank (control) used in calculations of the ORAC(o) value for each samples may be included in each run. Fluorescence vs. time is plotted. The blank (control) is subtracted from every curve. […]

Another assay can be described thus: ORAC(fl-lipo) assay. An excerpt:
FIGS. 12A and 12B are graphs of ORAC(fl-lipo) results using mixed-tocopherol and the relative AUC results using the solvent/water/detergent solution to dissolve the sample and detect both lipohilic and lipophobic anti-oxidant capacity.

The nature of assay [2]: ORAC(o) assay (dissolved oxygen, oxygen radical absorbance capacity). The procedure:
Method of Measuring Antioxidant Activity. In operation, the ORAC(o) assay of the present invention was used to evaluate antioxidant compositions, combinations and the like of solutions against a target molecule (linoleic acid) with oxygen present at equilibrium with the air. A free radical initiator is added and the time it takes for oxygen to disappear is measured, yielding the rate of disappearance. Trolox® is used as the standard, and a blank is run as a control. Amount of dissolved oxygen vs. time is plotted allowing direct comparison of net areas under the curve. A detailed method is as follows: Buffers (K2HPO4 (F.W. 174.2), NaH2PO4 (FW 120.0)) were obtained from Sigma (St. Louis, Mo.). Linoleic acid 99%, Trolox® (6-hydroxy-2,5,7,8-tetramethylchroman-2-carboxylic acid) 97%, TWEEN® 20, and 2,2'-azobis (2-methylpropionamidine) dihydrochloride 97% (AAPH), were obtained from Aldrich (Milwaukee, Wis.). HPLC grade acetone was obtained from Fisher (Hampton, […] biological oxygen meter was obtained from YSI (Yellow Springs, Ohio) and used according to the manufacturer's specifications. ORAC(o) Method. The following stock solutions were used. […] Weigh 65.33 g into 500 mL of volumetric flask, and add dH20 to the mark. Concentration is 750 mM. Store 750 mM K2HPO4 stock solution in a refrigerator (2 to 8° C.) equipped with a calibrated thermometer. Target temperature is 4° C. 750 mM NaH2PO4 (FW 120.0); Weigh 45.00 g into 500 mL of volumetric flask, and add dH20 to the mark. Concentration is 750 mM. Store 750 mM NaH2PO4 stock solution in a refrigerator (2 to 8° C.) equipped with a calibrated thermometer. Target temperature is 4° C. Mix 40 ml of 750 mM K2HPO4 stock solution and 10 ml of 750 mM NaH2PO4 stock solution (4 to 1 ratio). […] Store stock solution in a refrigerator (2 to 8° C.) equipped with a calibrated thermometer. Target temperature is 4° C. Dilute mixture with dH20 (1:9) to make working solution of ORAC buffer, and measure pH. It should be 7.4. Keep covered at room temperature until ready to use. Tween Preparation. Weigh out 10 g of Tween 20, and add 90 g of deionized water. Cover and stir the mixture overnight. Tween stock solution keeps for one week. Keep on countertop. Solvent Preparation. Mix 25 mL of acetone, 25 mL of deionized water, and 25 mL of Tween 20. Use this solvent to prepare samples. Before a run is performed: the probe should be inspected for damage paying particular attention to the membrane, replace if needed. Probes should be stored with the tips in deionized water. Only one probe and one reaction chamber should be used for this assay. Run a blank and Trolox® (at 10 μg/ml or 0.03995 μmol/ml) every 8 hours. […] The sample concentration and Trolox® concentration should be the same. The dilutions are prepared by weighing out 1 mg of sample and adding 1 ml of solvent to perform the initial extraction. Shake for one hour, place 0.5 ml of the initial extraction solution in a glass scintillation vial, and then add 4.5 ml of solvent, making the first dilution. Vortex the first dilution for about 30 seconds. Its concentration is 0.1 mg/ml or 100 ppm. Take 0.5 ml of the first dilution, put it into another glass scintillation vial, and then add 4.5 ml of solvent, vortex for about 30 seconds, to yield a concentration of 0.01 mg/ml or 10 ppm. Take 0.5 ml of the vial sample and put it into another glass scintillation vial, and then add 4.5 ml of solvent, vortex for about 30 seconds, to yield a concentration of […] are placed in a 4° C. refrigerator. In a 37° C. water bath allow linoleic acid to thaw, and prepare linoleic acid solution (with minimal light) by adding 0.18 mL Tween stock solution, 0.18 mL buffer, and 0.44 mL deionized water to 70.8 mg linoleic acid. Keep solution tube wrapped in foil. Make linoleic acid solution fresh every 8 hours. To prepare the oxygen radical generator, weigh 67.8 mg of AAPH, and dissolve in 0.9 mL buffer. Keep AAPH refrigerated, it may be used for up to eight hours. Shake for 1 hour. […]

“And” between values parts separate entries of the source, which are not always exact repeats. Equal values may be shown once. “Also recorded” adds a separate entry of the source.

`Cc1c(C)c2c(c(C)c1O)CC[C@@](C)(CCC[C@H](C)CCC[C@H](C)CCCC(C)C)O2` [α-tocopherol]: the “contribution to AO activity” value in assay [1] was “no contribution to AO activity; also recorded: no statistically significant activity could be detected”. For the same compound, the “ORAC(fl-lipo) AUC, acetone:water:Tween-20 versus acetone:water” value in “ORAC(fl-lipo) assay” was “large increase in the AUC”.
`O=c1c(O)c(-c2ccc(O)c(O)c2)oc2cc(O)cc(O)c12` [quercetin]: the “Area Under Curve (AUC), 5 Day Mean” value in assay [2] (quercetin sample 10 μg/mL) was 203.7. In assay [2] (quercetin sample 10 μg/mL), the “Area under curve, 5 Run Mean” value is 202.9. The “Area Under Curve (AUC), 5 day trial for precision” value in assay [2] (quercetin sample 10 μg/mL, each day average of 3 runs) was 202.7 and 212.9 and 187 and 202.9 and 213.1. In assay [2] (quercetin sample 10 μg/mL, separate runs), the “Area under curve, single day trial for precision” value was 207.4 and 198.2 and 205 and 201.6 and 202.1. Besides, the “Area Under Curve” value in assay [2] (sample 1 μg/ml) is recorded as 124.6; in assay [2] (sample 10 μg/ml) it was 209.4; in assay [2] (sample 100 μg/ml) it was 693.6; in assay [2] (sample 500 μg/ml) it was 2328; in assay [2] (sample 1000 μg/ml), 2870.
